Measurements taken from US7014863B2, “Additive for an animal feed” (priority 1999, dated 2006).

Experiments:
Clostridium perfringens [1] = assay type: in vivo, chickens; details: inferred from FIG. 3 and common knowledge
Clostridium perfringens [2] = details: general common knowledge in the art; cited from earlier work

For `C[N+](C)(C)CC(=O)O` [betaine], the “effectiveness against an infection of C. perfringens” value (Clostridium perfringens [1]) is given as “does not result in the Clostridium infection being effectively treated” and the “effectiveness against a C. perfringens challenge” value (Clostridium perfringens [2]) is given as “not effective”.
